Earlier results, collected in US20230149377A1, “PHARMACEUTICAL METHODS” (ELEVAR THERAPEUTICS, INC., priority 2018, published 2023).
Structures can show the parent of a compound that is named as a salt.

Legend:
[1] = observed safety issues, approved drugs
[2] = single dose
[3] = Phase 1, 46 patients
[4] = molecular target: VEGFR-2 (Homo sapiens, UniProt P35968); settings: nonclinical
[5] = tested on: tumor bearing animal models
[6] = 81 mg rivoceranib dose (100 mg mesylate), healthy volunteers
[7] = tested on: gastric cancer; settings: Phase 3

Chain of VEGFR-2 (P35968 20-1356, species assumed): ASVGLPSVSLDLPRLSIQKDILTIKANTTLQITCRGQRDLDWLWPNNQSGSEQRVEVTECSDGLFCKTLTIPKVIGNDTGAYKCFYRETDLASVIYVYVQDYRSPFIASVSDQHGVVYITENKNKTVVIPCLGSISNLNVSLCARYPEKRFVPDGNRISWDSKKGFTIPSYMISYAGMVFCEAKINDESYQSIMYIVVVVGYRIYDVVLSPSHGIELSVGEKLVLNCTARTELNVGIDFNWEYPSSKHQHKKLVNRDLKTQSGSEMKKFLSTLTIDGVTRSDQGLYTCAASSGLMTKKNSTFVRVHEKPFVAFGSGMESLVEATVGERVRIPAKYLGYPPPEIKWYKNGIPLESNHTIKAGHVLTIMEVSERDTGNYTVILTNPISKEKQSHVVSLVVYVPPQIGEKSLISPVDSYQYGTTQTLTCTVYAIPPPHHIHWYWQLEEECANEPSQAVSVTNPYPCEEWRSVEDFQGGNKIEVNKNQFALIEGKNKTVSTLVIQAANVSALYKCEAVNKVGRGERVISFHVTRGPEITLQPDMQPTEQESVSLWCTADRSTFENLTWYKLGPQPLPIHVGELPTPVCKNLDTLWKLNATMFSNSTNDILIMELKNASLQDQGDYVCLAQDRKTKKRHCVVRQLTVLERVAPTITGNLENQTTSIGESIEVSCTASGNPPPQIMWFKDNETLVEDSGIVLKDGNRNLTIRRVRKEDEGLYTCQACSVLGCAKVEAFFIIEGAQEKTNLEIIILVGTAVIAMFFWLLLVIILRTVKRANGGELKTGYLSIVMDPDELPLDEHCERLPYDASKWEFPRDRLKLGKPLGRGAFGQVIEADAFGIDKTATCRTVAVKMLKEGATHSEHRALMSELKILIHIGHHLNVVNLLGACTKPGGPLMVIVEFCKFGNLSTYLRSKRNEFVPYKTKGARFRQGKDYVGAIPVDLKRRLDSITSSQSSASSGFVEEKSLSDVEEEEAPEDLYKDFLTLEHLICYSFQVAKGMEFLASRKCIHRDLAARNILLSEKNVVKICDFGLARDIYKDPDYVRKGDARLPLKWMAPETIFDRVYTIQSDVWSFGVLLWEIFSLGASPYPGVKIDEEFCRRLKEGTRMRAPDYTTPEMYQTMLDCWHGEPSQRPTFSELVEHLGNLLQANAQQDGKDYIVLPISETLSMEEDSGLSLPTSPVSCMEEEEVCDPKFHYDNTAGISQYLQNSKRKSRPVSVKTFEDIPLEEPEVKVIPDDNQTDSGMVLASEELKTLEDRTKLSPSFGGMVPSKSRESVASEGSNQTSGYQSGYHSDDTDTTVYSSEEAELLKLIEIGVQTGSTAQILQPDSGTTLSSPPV

| SMILES | Safety Profile: Central nervous system [1] | Safety Profile: Liver/Bile [1] | Safety Profile: Musculoskeletal/bone [1] | Safety Profile: Renal [1] | Safety Profile: Heart [1] | other results |
| --- | --- | --- | --- | --- | --- | --- |
| Cc1nc(Nc2ncc(C(=O)Nc3c(C)cccc3Cl)s2)cc(N2CCN(CCO)CC2)n1 [Dasatinib] | R | R | R | R |  |  |
| C#Cc1cccc(Nc2ncnc3cc(OCCOC)c(OCCOC)cc23)c1 [Erlotinib] | R | R |  |  |  | Safety Profile: Blood/lymph system [1]: R |
| CS(=O)(=O)CCNCc1ccc(-c2ccc3ncnc(Nc4ccc(OCc5cccc(F)c5)c(Cl)c4)c3c2)o1 [Lapatinib] | R |  |  |  | R |  |
| Cc1cn(-c2cc(NC(=O)c3ccc(C)c(Nc4nccc(-c5cccnc5)n4)c3)cc(C(F)(F)F)c2)cn1 [Nilotinib] | R |  | R | R |  | Safety Profile: GI [1]: R; Safety Profile: Vascular [1]: R |
| Cc1ccc(Nc2nccc(N(C)c3ccc4c(C)n(C)nc4c3)n2)cc1S(N)(=O)=O [Pazopanib] |  |  |  |  | R |  |
| CNC(=O)c1cc(Oc2ccc(NC(=O)Nc3ccc(Cl)c(C(F)(F)F)c3)cc2)ccn1 [Sorafenib] | R | R | R | R | R | Safety Profile: GI [1]: R; Safety Profile: Lung airways [1]: R |
| CCN(CC)CCNC(=O)c1c(C)[nH]c(/C=C2\C(=O)Nc3ccc(F)cc32)c1C [Sunitinib] | R | R |  |  | R |  |
| N#CC1(c2ccc(NC(=O)c3cccnc3NCc3ccncc3)cc2)CCCC1 [rivoceranib mesylate] |  |  |  |  |  | AUC0-∞ in Chinese and Japanese subjects compared to Caucasian subjects ([2]; healthy male): slightly higher; Cmax in Chinese and Japanese subjects compared to Caucasian subjects ([2]; healthy male): slightly higher; t1/2 ([2]; similar amongst Caucasian, Japanese and Chinese groups): 7.5 to 8 h; maximum tolerated dose [3]: 850 mg |
| N#CC1(c2ccc(NC(=O)c3cccnc3NCc3ccncc3)cc2)CCCC1 [rivoceranib, N-[4-(1-cyanocyclopentyl)phenyl]-2-{[(pyridin-4-yl)methyl]amino} pyridine-3-carboxamide] |  |  |  |  |  | binding to VEGFR-2 [4]: selectively binds; side effects in animals ([5]; at efficacious doses): minimal side effects; efficacy in various tumor bearing animal models ([5]; nonclinical): efficacious; Food effects on the bioavailability [6]: minimal; Grade 3/4 adverse reactions that occurred in more than 2% of patients [7]: hypertension, HFS, proteinuria, fatigue, anorexia, and elevated aminotransferase; median overall survival (OS) compared to placebo [7]: prolonged; median progression-free survival (PFS) compared to placebo [7]: prolonged |
